The source of these data is US6437006B1, “Pharmaceutical carrier formulation” (American Cyanamid Company, priority 1999, dated 2002).

As a reminder, the melting point is the temperature, or range, at which the solid turns liquid. `Cc1ccn(-c2ccc(C(=O)N3Cc4cccn4Cc4ccccc43)c(Cl)c2)n1` [Isomer A] had a melting point of 141 to 143 °C.
